Source: ChEMBL document CHEMBL5143508, “Design, synthesis and biological evaluation of novel o-aminobenzamide derivatives as potential anti-gastric cancer agents in vitro and in vivo” (Eur J Med Chem, 2022)
Values joined by “and” are separate entries in the source; they are usually repeats but may differ in a detail not shown here. Equal values may be shown once.

Legend:
BGC-823 = assay: cells; assay type: functional, cell-based; details: Homo sapiens, BGC-823, 72 h
Description: Cytotoxicity against human BGC-823 cells assessed as inhibition of cell growth incubated for 72 hrs by MTT assay

AGS = assay: cells; assay type: functional, cell-based; details: Homo sapiens, 72 h
Description: Cytotoxicity against human AGS cells assessed as inhibition of cell growth incubated for 72 hrs by MTT assay

MGC-803 = assay: cells; assay type: functional, cell-based; details: Homo sapiens, MGC-803, 72 h
Description: Cytotoxicity against human MGC-803 cells assessed as inhibition of cell growth incubated for 72 hrs by MTT assay

in vitro [1] = details: human, GES1 cells
Description: Cytotoxicity against human GES1 cells assessed as inhibition of cell growth incubated for 72 hrs by MTT assay

HGC-27 [2] = assay: cells; assay type: functional, cell-based; details: Homo sapiens, HGC-27, 72 h
Description: Cytotoxicity against human HGC-27 cells assessed as inhibition of cell growth incubated for 72 hrs by MTT assay

SGC-7901 = assay: cells; assay type: functional, cell-based; details: Homo sapiens, SGC-7901, 72 h
Description: Cytotoxicity against human SGC-7901 cells assessed as inhibition of cell growth incubated for 72 hrs by MTT assay

in vitro [3] = details: human, WI-38 cells
Description: Cytotoxicity against human WI-38 cells assessed as inhibition of cell growth incubated for 72 hrs by MTT assay

[4] = Toxicity in BALB/c mouse xenografted with human HGC-27 cells assessed as RBC level at 150 mg/kg, po bid for 19 days; assay type: organism-based, Erythrocyte; details: in vivo, 456 h, time 19 day
[5] = Toxicity in BALB/c mouse xenografted with human HGC-27 cells assessed as lymphocyte level at 150 mg/kg, po bid for 19 days; assay type: organism-based; details: in vivo, 456 h, time 19 day
[6] = Toxicity in BALB/c mouse xenografted with human HGC-27 cells assessed as granulocyte level at 150 mg/kg, po bid for 19 days; assay type: organism-based; details: in vivo, 456 h, time 19 day
[7] = Toxicity in BALB/c mouse xenografted with human HGC-27 cells assessed as hematocrit level at 150 mg/kg, po bid for 19 days; assay type: organism-based; details: in vivo, 456 h, time 19 day
[8] = Toxicity in BALB/c mouse xenografted with human HGC-27 cells assessed as mean corpuscular volume at 150 mg/kg, po bid for 19 days; assay type: organism-based; details: in vivo, 456 h, time 19 day
[9] = Toxicity in BALB/c mouse xenografted with human HGC-27 cells assessed as red blood cell distribution width at 150 mg/kg, po bid for 19 days; assay type: organism-based; details: in vivo, 456 h, time 19 day
HGC-27 [10] = assay: Antitumor activity against human HGC-27 cells xenografted in BALB/c mouse assessed as tumor growth inhibition at 150 mg/kg, po bid administered for 19 days; assay type: functional; details: HGC-27, 456 h, time 19 day, read-out: TGI
[11] = Toxicity in BALB/c mouse xenografted with human HGC-27 cells assessed as platelet level at 150 mg/kg, po bid for 19 days; assay type: organism-based; details: in vivo, 456 h, time 19 day
[12] = Toxicity in BALB/c mouse xenografted with human HGC-27 cells assessed as platelet distribution width at 150 mg/kg, po bid for 19 days; assay type: organism-based; details: in vivo, 456 h, time 19 day
[13] = Toxicity in BALB/c mouse xenografted with human HGC-27 cells assessed as mean platelet volume at 150 mg/kg, po bid for 19 days; assay type: organism-based; details: in vivo, 456 h, time 19 day
[14] = Toxicity in BALB/c mouse xenografted with human HGC-27 cells assessed as monocyte level at 150 mg/kg, po bid for 19 days; assay type: organism-based; details: in vivo, 456 h, time 19 day
HGC-27 [15] = assay: Antiproliferative activity against human HGC-27 cells measured after 24 hrs by […]; assay type: functional, cell-based; details: HGC-27, 24 h

Structure (SMILES)	IC50 (BGC-823)	IC50 (AGS)	IC50 (MGC-803)	IC50 at 72 h (in vitro [1])	IC50 (HGC-27 [2])	IC50 (SGC-7901)	IC50 at 72 h (in vitro [3])	further results
O=c1[nH]cc(F)c(=O)[nH]1 [FLUOROURACIL]	14 µM	23.2 µM	62.5 µM	38.5 µM	27.5 µM	69.8 µM		
O=C(NCc1ccc(NC(=O)c2cccc(F)c2N2CCCC2)cc1)OCc1cccnc1	> 100 µM	> 100 µM	> 100 µM	> 100 µM	2.02 µM	> 100 µM	> 100 µM	
COc1ccc(N2CCCC2)c(C(=O)Nc2ccc(CNC(=O)OCc3cccnc3)cc2)c1	> 100 µM	25.6 µM	85.7 µM	> 100 µM	138 µM	47.2 µM	35.6 µM	
Cc1ccc(N2CCCC2)c(C(=O)Nc2ccc(CNC(=O)OCc3cccnc3)cc2)c1	> 100 µM	24.7 µM	19.1 µM	> 100 µM	1.65 µM	65.3 µM	40.6 µM	
O=C(NCc1ccc(NC(=O)c2cc(Br)ccc2N2CCCC2)cc1)OCc1cccnc1	> 100 µM	> 100 µM	45.7 µM	> 100 µM	0.64 µM	> 100 µM	> 100 µM	
CCCCCOC(=O)Nc1nc(=O)n([C@@H]2O[C@H](C)[C@@H](O)[C@H]2O)cc1F [CAPECITABINE]								Activity [4]: 10.26 10^12/L; Activity [5]: 6.1 10^9/L and 7.45%; Activity [6]: 73.83 10^9/L and 90.38%; Activity [7]: 55.25%; Activity [8]: 53.73 fL; Activity [9]: 15.63%; inhibition in vivo at 150 mg/kg (HGC-27 [10]): 29.9%; Activity [11]: 799 10^9/L; Activity [12]: 17.93; Activity [13]: 6.95 fL; Activity [14]: 1.75 10^9/L and 2.18%
O=C(NCc1ccc(NC(=O)c2cc(Cl)ccc2N2CCCC2)cc1)OCc1cccnc1	> 100 µM	> 100 µM	55.5 µM	> 100 µM	0.75 µM	> 100 µM	> 100 µM	
O=C(NCc1ccc(NC(=O)c2ccc(F)cc2N2CCCC2)cc1)OCc1cccnc1	74.5 µM	> 100 µM	52.1 µM	> 100 µM	1.84 µM	56.2 µM	> 100 µM	
C#Cc1ccc(N2CCCC2)c(C(=O)Nc2ccc(CNC(=O)OCc3cccnc3)cc2)c1								IC50 (HGC-27 [15]): 2.48 µM
C#Cc1cccc(C(=O)Nc2ccc(CNC(=O)OCc3cccnc3)cc2)c1								IC50 (HGC-27 [15]): > 100 µM
Cc1cccc(C(=O)Nc2ccc(CNC(=O)OCc3cccnc3)cc2)c1N1CCCC1	> 100 µM	> 100 µM	> 100 µM	> 100 µM	1.03 µM	> 100 µM	> 100 µM	
O=C(NCc1ccc(NC(=O)c2cc(C(F)(F)F)ccc2N2CCCC2)cc1)OCc1cccnc1	> 100 µM	> 100 µM	42.1 µM	> 100 µM	0.79 µM	> 100 µM	> 100 µM	
Nc1ccccc1NC(=O)c1ccc(CNC(=O)OCc2cccnc2)cc1 [ENTINOSTAT]	27 µM	26.7 µM	58.6 µM	60.2 µM	18.5 µM	> 200 µM		
O=C(NCc1ccc(NC(=O)c2cc(-c3ccccc3)ccc2N2CCCC2)cc1)OCc1cccnc1	> 100 µM	> 100 µM	10.5 µM	> 100 µM	4.34 µM	> 100 µM	> 100 µM	
Cc1ccc(C(=O)Nc2ccc(CNC(=O)OCc3cccnc3)cc2)c(N2CCCC2)c1	> 100 µM	> 100 µM	> 100 µM	> 100 µM	1.87 µM	75.2 µM	> 100 µM	
